In US11339171B2, “MDM2 inhibitors” (Gan & Lee Pharmaceuticals, priority 2017, dated 2022):

Legend:
[1] = test system: human osteosarcoma cell line SJSA-1; assay: Inhibition of proliferation of human osteosarcoma cell line SJSA-1 (DAPI staining, In Cell Analyzer); conditions: Homo sapiens, SJSA-1, 72 h, read-out: IC50 (nM), inhibitory activity on proliferation of human osteosarcoma cell line SJSA-1, SJSA-1, incubated 72 h
[2] = target: T1, MDM2 (Homo sapiens, UniProt Q00987); assay: Inhibition test of MDM2-P53 (GST-MDM2, Biotin-P53, Anti-GST-Tb, SA-XL665); format: binding
T1 construct: made in house
T1 sequence (Q00987 whole entry): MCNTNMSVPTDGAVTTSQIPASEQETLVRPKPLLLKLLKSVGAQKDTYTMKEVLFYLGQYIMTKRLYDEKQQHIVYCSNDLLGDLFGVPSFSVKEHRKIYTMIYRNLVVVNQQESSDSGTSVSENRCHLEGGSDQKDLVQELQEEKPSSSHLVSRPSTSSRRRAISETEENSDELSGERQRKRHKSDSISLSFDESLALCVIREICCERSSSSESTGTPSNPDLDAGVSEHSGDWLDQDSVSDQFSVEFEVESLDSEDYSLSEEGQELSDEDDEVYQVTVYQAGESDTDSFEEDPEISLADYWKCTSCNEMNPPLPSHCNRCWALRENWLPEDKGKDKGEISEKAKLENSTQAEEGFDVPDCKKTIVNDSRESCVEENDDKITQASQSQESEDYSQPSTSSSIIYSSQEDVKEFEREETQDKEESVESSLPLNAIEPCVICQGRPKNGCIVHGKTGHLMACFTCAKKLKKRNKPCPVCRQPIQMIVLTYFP
In short: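 Binding was measured by TR-FRET with GST-MDM2 at 4 nM final in PBS with 0.1% BSA, 5 mM DTT and 1 mM AEBSF. Compounds were tested as twelve-point 5-fold dilutions and incubated with the detection mix for 90 min at 25 °C with shaking before plate-reader reading and curve fitting.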

For `COc1nc(OCC(F)F)ncc1-c1nc2c(n1C(C)C)[C@@]1(C(=O)Nc3cc(Cl)ccc31)N(c1cc(Cl)ccc1C)C2=O` [Example S-147, (S)-6-chloro-5′-(5-chloro-2-methylphenyl)-2′-(2-(2,2-difluoroethoxy)-4-methoxypyrimidin-5-yl)-3′-isopropyl-3′H-spiro[dihydroindole-3,4′-pyrrolo[3,4-d]imidazole]-2,6′(5′H)-dione], which IC50 [1] is on record?
The IC50 was 271 nM.

And the IC50 [2]?
The IC50 was 5.89 nM.

With `COc1cc(OCCO)ccc1-c1nc2c(n1C(C)C)[C@@]1(C(=O)Nc3cc(Cl)ccc31)N(c1cc(Cl)ccc1C)C2=O` [Example S-148, (S)-6-chloro-5′-(5-chloro-2-methylphenyl)-2′-(4-(2-hydroxyethoxy)-2-methoxyphenyl)-3′-isopropyl-3′H-spiro[dihydroindole-3,4′-pyrrolo[3,4-d]imidazole]-2,6′(5′H)-dione] as the molecule, how does the IC50 [1] read?
The IC50 was 71.8 nM.

What about the IC50 [2] of the same molecule?
Its IC50 is 1.58 nM.

Which IC50 [1] does the source give for `COc1nc(C(C)C)ccc1-c1nc2c(n1C(C)C)[C@@]1(C(=O)Nc3cc(Cl)ccc31)N(c1cc(Cl)ccc1C)C2=O` [Example S-149, (S)-6-chloro-5′-(5-chloro-2-methylphenyl)-3′-isopropyl-2′-(6-isopropyl-2-methoxypyridin-3-yl)-3′H-spiro[dihydroindole-3,4′-pyrrolo[3,4-d]imidazole]-2,6′(5′H)-dione] here?
The IC50 was 153 nM.

And the IC50 [2]?
Its IC50 is 18.5 nM.

Which IC50 [1] does the source give for `COc1cc(OC(F)F)ncc1-c1nc2c(n1C(C)C)[C@@]1(C(=O)Nc3cc(Cl)ccc31)N(c1cc(Cl)ccc1C)C2=O` [Example S-150, (S)-6-chloro-5′-(5-chloro-2-methylphenyl)-2′-(6-(difluoromethoxy)-4-methoxypyridin-3-yl)-3′-isopropyl-3′H-spiro[dihydroindole-3,4′-pyrrolo[3,4-d]imidazole]-2,6′(5′H)-dione] here?
Its IC50 is 80.5 nM.

What about the IC50 [2] of the same molecule?
Its IC50 is 1.93 nM.

How did the IC50 [1] turn out when `COc1cc(C(F)(F)F)ncc1-c1nc2c(n1C(C)C)[C@@]1(C(=O)Nc3cc(Cl)ccc31)N(c1cc(Cl)cnc1C)C2=O` [Example S-152, (S)-6-chloro-5′-(5-chloro-2-methylpyridin-3-yl)-3′-isopropyl-2′-(4-methoxy-6-(trifluoromethyl)pyridine-3-yl)-3′H-spiro[dihydroindole-3,4′-pyrrolo[3,4-d]imidazole]-2,6′(5′H)-dione] was run?
The IC50 was 79.8 nM.

What about the IC50 [2] of the same molecule?
Its IC50 is 0.78 nM.

What does the source list for `COc1cc(OCC(F)F)ncc1-c1nc2c(n1C(C)C)[C@@]1(C(=O)Nc3cc(Cl)ccc31)N(c1cc(Cl)ccc1C)C2=O` [Example S-153, (S)-6-chloro-5′-(5-chloro-2-methylphenyl)-2′-(6-(2,2-difluoroethoxy)-4-methoxypyridin-3-yl)-3′-isopropyl-3′H-spiro[dihydroindole-3,4′-pyrrolo[3,4-d]imidazole]-2,6′(5′H)-dione]?
IC50 [1]: 22 nM; IC50 [2]: 0.49 nM

How did the IC50 [1] turn out when `COc1cc(C)ncc1-c1nc2c(n1C(C)C)[C@@]1(C(=O)Nc3cc(Cl)ccc31)N(c1cc(Cl)ccc1C)C2=O` [Example S-154, (S)-6-chloro-5′-(5-chloro-2-methylphenyl)-3′-isopropyl-2′-(4-methoxy-6-methylpyridin-3-yl)-3′H-spiro[dihydroindole-3,4′-pyrrolo[3,4-d]imidazole]-2,6′(5′H)-dione] was run?
Its IC50 is 22 nM.

And the IC50 [2]?
The IC50 was 0.9 nM.

Which IC50 [1] does the source give for `COc1cc(N(C)C)ncc1-c1nc2c(n1C(C)C)[C@@]1(C(=O)Nc3cc(Cl)ccc31)N(c1cc(Cl)cnc1C)C2=O` [Example S-155, (S)-6-chloro-5′-(5-chloro-2-methylpyridin-3-yl)-2′-(6-(dimethylamino)-4-methoxypyridin-3-yl)-3′-isopropyl-3′H-spiro[dihydroindole-3,4′-pyrrolo[3,4-d]imidazole]-2,6′(5′H)-dione] here?
The IC50 was 14.6 nM.

And the IC50 [2]?
Its IC50 is 0.95 nM.

Which results are given for `COc1nc(N(C)C)ccc1-c1nc2c(n1C(C)C)[C@@]1(C(=O)Nc3cc(Cl)ccc31)N(c1cc(Cl)ccc1C)C2=O` [Example S-157, (S)-6-chloro-5′-(5-chloro-2-methylphenyl)-2′-(6-(dimethylamino)-2-methoxypyridin-3-yl)-3′-isopropyl-3′H-spiro[dihydroindole-3,4′-pyrrolo[3,4-d]imidazole]-2,6′(5′H)-dione]?
IC50 [1]: 16.7 nM; IC50 [2]: 3.81 nM

Which results are given for `COc1ncc(-c2nc3c(n2C(C)C)[C@@]2(C(=O)Nc4cc(Cl)ccc42)N(c2ccc(C#N)c(Cl)c2)C3=O)c(OC)n1` [Example S-158, (S)-2-chloro-4-(6-chloro-2′-(2,4-dimethoxypyrimidin-5-yl)-3′-isopropyl-2,6′-dioxo-3′,6′-dihydro-5′H-spiro[dihydroindole-3,4′-pyrrolo[3,4-d]imidazole]-5′-yl)benzonitrile]?
IC50 [1]: 550 nM; IC50 [2]: 4.07 nM

What does the source list for `COc1ncc(-c2nc3c(n2C(C)C)[C@@]2(C(=O)Nc4cc(Cl)ccc42)N(c2ccc(OC(F)(F)F)c(Cl)c2)C3=O)c(OC)n1` [Example S-161, (S)-6-chloro-5′-(3-chloro-4-(trifluoromethoxy)phenyl)-2′-(2,4-dimethoxypyrimidin-5-yl)-3′-isopropyl-3′H-spiro[dihydroindole-3,4′-pyrrolo[3,4-d]imidazole]-2,6′(5′H)-dione]?
IC50 [1]: 557 nM; IC50 [2]: 8.09 nM

With `COc1cc(N(C)CCO)ccc1-c1nc2c(n1C(C)C)[C@@]1(C(=O)Nc3cc(Cl)ccc31)N(c1cc(Cl)ccc1C)C2=O` [Example S-162, (S)-6-chloro-5′-(5-chloro-2-methylphenyl)-2′-(4-((2-hydroxyethyl)(methyl)amino)-2-methoxyphenyl)-3′-isopropyl-3′H-spiro[dihydroindole-3,4′-pyrrolo[3,4-d]imidazole]-2,6′(5′H)-dione] as the molecule, how does the IC50 [1] read?
The IC50 was 14.9 nM.

And the IC50 [2]?
The IC50 was 2.07 nM.

With `COc1cc(OCCF)ncc1-c1nc2c(n1C(C)C)[C@@]1(C(=O)Nc3cc(Cl)ccc31)N(c1cc(Cl)ccc1C)C2=O` [Example S-163, (S)-6-chloro-5′-(5-chloro-2-methylphenyl)-2′-(6-(2-fluoroethoxy)-4-methoxypyridin-3-yl)-3′-isopropyl-3′H-spiro[dihydroindole-3,4′-pyrrolo[3,4-d]imidazole]-2,6′(5′H)-dione] as the molecule, how does the IC50 [1] read?
Its IC50 is 126 nM.

And the IC50 [2]?
Its IC50 is 1.36 nM.

With `COc1cc(C(C)C)ncc1-c1nc2c(n1C(C)C)[C@@]1(C(=O)Nc3cc(Cl)ccc31)N(c1cc(Cl)ccc1C)C2=O` [Example S-164, (S)-6-chloro-5′-(5-chloro-2-methylphenyl)-3′-isopropyl-2′-(6-isopropyl-4-methoxypyridin-3-yl)-3′H-spiro[dihydroindole-3,4′-pyrrolo[3,4-d]imidazole]-2,6′(5′H)-dione] as the molecule, how does the IC50 [1] read?
Its IC50 is 16.8 nM.

What about the IC50 [2] of the same molecule?
The IC50 was 0.94 nM.

What does the source list for `COc1cc(C(C)C)ncc1-c1nc2c(n1C(C)C)[C@@]1(C(=O)Nc3cc(Cl)ccc31)N(c1cc(Cl)cnc1C)C2=O` [Example S-166, (S)-6-chloro-5′-(5-chloro-2-methylpyridin-3-yl)-3′-isopropyl-2′-(6-isopropyl-4-methoxypyridin-3-yl)-3′H-spiro[dihydroindole-3,4′-pyrrolo[3,4-d]imidazole]-2,6′(5′H)-dione]?
IC50 [1]: 38.1 nM; IC50 [2]: 1.88 nM

Which results are given for `COc1nc(OCCF)ncc1-c1nc2c(n1C(C)C)[C@@]1(C(=O)Nc3cc(Cl)ccc31)N(c1cc(Cl)cnc1C)C2=O` [Example S-170, (S)-6-chloro-5′-(5-chloro-2-methylpyridin-3-yl)-2′-(2-(2-fluoroethoxy)-4-methoxypyrimidin-5-yl)-3′-isopropyl-3′H-spiro[dihydroindole-3,4′-pyrrolo[3,4-d]imidazole]-2,6′(5′H)-dione]?
IC50 [1]: 131 nM; IC50 [2]: 1.86 nM
